In one series the target is CI-M6PR (Homo sapiens, UniProt P11717). Put plainly: Human CI-M6PR binding assay (ELISA). More on the design: purchased R&D 6418-GR-050. Here is the method:
Nunc black solid bottom MaxiSorp plates were allowed to incubate overnight at 4° C. coated with 1 μg/mL of recombinant human CI-M6PR protein (R&D, 6418-GR-050) in 50 μL PBS. The next day, coating was decanted and plates were washed 3× with PBS. Wells were blocked with 350 μL of 3% BSA-PBS for 1 hour at room temperature. […] 50 μL of diluted conjugates were added to the plate and allowed to incubate at room temperature for 2 hours. After incubation, solutions in plate were decanted and washed with 350 μL of 0.05% PBS-Tween20 three times, drying the plate each wash on a clean paper towel. 50 μL of peroxidase AffiniPure Mouse Anti-Human IgG (Jackson Immuno, 209-035-088) diluted in 3% BSA-PBS to […] was added to the plate and allowed to incubate for 1 hour at room temperature in the dark. After incubation, solutions in plate were decanted and washed with 350 μL of 0.05% PBS-Tween20 3 times, drying the plate each wash on a clean paper towel. […] 50 μL of QuantaBlu solution was added to wells and allowed to incubate for 5-10 minutes at room temperature. After incubation, plates were read on a Perkin Elmer EnVision using photometric 340 and Umbelliferone 460 filter sets for excitation and emission, respectively. Data analysis and non-linear curve-fitting was performed using GraphPad Prism.

The test system of series [1] is Jurkat cells. Nature of the series: Conjugate-mediated uptake of IgG2a-Alexa488 into Jurkat cells. It counts as cell-based. Conditions: for uptake into Jurkat cells (cell fluorescence vs conjugate concentration): DAR 9-11 per conjugate. The method, then:
(§1) The anti-IgG2a conjugates were bound to IgG2a-Alexa488, as follows: equal molar ratios of anti-IgG2a and IgG2a-Alexa488 were added in tissue culture media for 30 minutes at room temperature. The resulting anti-IgG2a:IgG2a antibody-Alexa488 compositions were added to Jurkat cells (100 k cells/50 ul per well, n=2), and Alexa488 fluorescence levels were measured (via Alexa488 measurement) at 1 hour and 24 hours by flow cytometry. As the fluorescently labelled target (IgG2a antibody) accumulates in cells, the fluorescence presents a way to measure total intracellular uptake by cells over time.

Series [2] deals with wild type (WT) K562 cells. Put plainly: CI-M6PR mediated uptake of Alexa488-IgE in wild type K562 cells. It counts as cell-based. Conditions: omalizumab conjugates, average loading DAR9, FIG. 14. The method, then: The uptake of exemplary omalizumab (anti-IgE) antibody conjugates of compound 520 (I-7) (average loading DAR9) versus exemplary compound 537 (I-66) (average loading DAR9) was assessed in wild type (WT) K562 cells and CI-M6PR knockout (KO) cells using a similar method of that described above.

Another series relates to Hep G2 cells. Nature of the series: Conjugate-mediated uptake of IgG2a into Hep G2 cells. It counts as cell-based, human. Conditions: one hour incubation, FIG. 13; 816 DAR6, 817 DAR4, 520 (I-7) DAR4. Here is the method: as §1
The uptake of antibody conjugates of exemplary M6PR or ASGPR binding compounds was assessed in Hep G2 cells, using a method similar to that described in Example above. […] Compounds 816 and 817 were prepared according to methods described in International Application No. PCT/US2021/012846, filed Jan. 8, 2021.

Series [3] concerns Jurkat cells. Put plainly: Uptake of IgE-Alexa488 target by omalizumab conjugates in Jurkat cells. It counts as cell-based. Conditions: 1 hour, FIGS. 15-17. The method, then: The omalizumab conjugates of Example 142 were bound to IgE-Alexa488 (prepared according to Example 144), as follows: equal molar ratios of omalizumab (anti-IgE) conjugate and IgE-Alexa488 were added in tissue culture media for 30 minutes at room temperature. The resulting anti-IgE conjugate:IgE antibody-Alexa488 compositions were added to Jurkat cells (100 k cells/50 ul per well, n=2), and Alexa488 fluorescence levels in the cells were measured at 1 hour by flow cytometry. As the fluorescently labelled target (IgE antibody) accumulates in cells, the fluorescence presents a way to measure total intracellular uptake by cells over time.

A short description of series [4]: Serum pharmacokinetic analysis of rIgG1 (anti-IgG2a) antibody conjugates. It counts as in vivo, mice. Conditions: intravenous 10 μg/mouse, serum 0.5-24 h, compared to Compound I-7 conjugate. The method, then:
A pharmacokinetic analysis of the rIgG1 (anti-IgG2a) antibody conjugates described in the previous example was performed in mice. In particular, […] mice were intravenously administered each rIgG1 antibody conjugate at 10 μg/mouse (5 mice per group). Blood was collected at 0.5, 1, 2, 6, and 24 hours and serum rIgG1 was analyzed using an ELISA kit (Abcam) according to the manufacturer's instructions. Samples were run across 3 different plates with unconjugated rIgG1 controls (UNLB-anti-IgG2a rIgG1) included on all 3 plates. FIGS. 8A-8C show the serum levels of anti-IgG2a conjugated to Compound I-7 (dar8) and (dar4) (FIG. 8A), anti-IgG2a conjugated to Compound I-10 and anti-IgG2a conjugated to Compound I-11 (FIG. 8B), and anti-IgG2a conjugated to Compound I-9 and anti-IgG2a conjugated to Compound I-12 (FIG. 8C) over time.

The target of series [5] is T1, M6PR (Domains I-9, R&D Systems) (Homo sapiens, UniProt P11717).
T1 construct: with 100 nM M6PR (Domains I-9, R&D Systems) and 1 nM probe; purchased R&D Systems
Put plainly: General M6PR binding assay (fluorescence polarization). Conditions: Table 16F, unconjugated compounds, 100 nM M6PR, 1 nM probe, 2 hr incubation. The method, then:
M6PR binding was measured in black 96-well plates using a fluorescence polarization assay. A fluorescent probe consisting of a reference M6Pn ligand linked to Cy5 was synthesized. Test compounds were resuspended in DMSO and 3-fold serial dilutions were made at 100× final concentrations. Binding reactions were conducted in 100 μl final volume in 20 mM HEPES (pH 7.5) 100 mM NaCl 0.015% Tween-20 1% DMSO with 100 nM M6PR (Domains I-9, R&D Systems) and 1 nM probe. Fluorescence polarization was measured using Xex=620 nm, λem=688 nm on an Envision plate reader (Perkin Elmer) after 2 hr incubation time. Dose responses were conducted in duplicate and normalized to the response with DMSO (high) and 1 μM reference compound (low) on each plate. IC50 values were determined by fitting to 4-parameter curves in GraphPad Prism.
(In general: Fluorescence polarisation rises when a labelled molecule tumbles more slowly, as on binding a larger partner.)

Setting [6] is: antibody conjugate, average loading DAR 9, read-out: EC50 (nM) in M6PR binding assay.
Where [7] appears, read: Table 16E, conjugate, m average DAR 9.5, read-out: EC50 in M6PR binding assay for conjugates of monovalent compounds of varying linker length and loading.
[8] abbreviates: antibody conjugate, average loading DAR 9.5, read-out: EC50 (nM) in M6PR binding assay.

Consider eight molecules from US20240335544A1, “M6PR CELL SURFACE RECEPTOR BINDING COMPOUNDS AND CONJUGATES” (LYCIA THERAPEUTICS, INC., priority 2021, published 2024).

The EC50 is the midpoint of the concentration-response curve. Usually IC50 stands for the concentration that inhibits the measured activity by half. High values mean lower potency, low ones higher potency.

The structures appear in SMILES notation. “Also recorded” adds a separate entry of the source. Like-named read-outs stand apart in the source and are kept apart here.

Sequence of CI-M6PR (P11717 41-1365 limits assumed): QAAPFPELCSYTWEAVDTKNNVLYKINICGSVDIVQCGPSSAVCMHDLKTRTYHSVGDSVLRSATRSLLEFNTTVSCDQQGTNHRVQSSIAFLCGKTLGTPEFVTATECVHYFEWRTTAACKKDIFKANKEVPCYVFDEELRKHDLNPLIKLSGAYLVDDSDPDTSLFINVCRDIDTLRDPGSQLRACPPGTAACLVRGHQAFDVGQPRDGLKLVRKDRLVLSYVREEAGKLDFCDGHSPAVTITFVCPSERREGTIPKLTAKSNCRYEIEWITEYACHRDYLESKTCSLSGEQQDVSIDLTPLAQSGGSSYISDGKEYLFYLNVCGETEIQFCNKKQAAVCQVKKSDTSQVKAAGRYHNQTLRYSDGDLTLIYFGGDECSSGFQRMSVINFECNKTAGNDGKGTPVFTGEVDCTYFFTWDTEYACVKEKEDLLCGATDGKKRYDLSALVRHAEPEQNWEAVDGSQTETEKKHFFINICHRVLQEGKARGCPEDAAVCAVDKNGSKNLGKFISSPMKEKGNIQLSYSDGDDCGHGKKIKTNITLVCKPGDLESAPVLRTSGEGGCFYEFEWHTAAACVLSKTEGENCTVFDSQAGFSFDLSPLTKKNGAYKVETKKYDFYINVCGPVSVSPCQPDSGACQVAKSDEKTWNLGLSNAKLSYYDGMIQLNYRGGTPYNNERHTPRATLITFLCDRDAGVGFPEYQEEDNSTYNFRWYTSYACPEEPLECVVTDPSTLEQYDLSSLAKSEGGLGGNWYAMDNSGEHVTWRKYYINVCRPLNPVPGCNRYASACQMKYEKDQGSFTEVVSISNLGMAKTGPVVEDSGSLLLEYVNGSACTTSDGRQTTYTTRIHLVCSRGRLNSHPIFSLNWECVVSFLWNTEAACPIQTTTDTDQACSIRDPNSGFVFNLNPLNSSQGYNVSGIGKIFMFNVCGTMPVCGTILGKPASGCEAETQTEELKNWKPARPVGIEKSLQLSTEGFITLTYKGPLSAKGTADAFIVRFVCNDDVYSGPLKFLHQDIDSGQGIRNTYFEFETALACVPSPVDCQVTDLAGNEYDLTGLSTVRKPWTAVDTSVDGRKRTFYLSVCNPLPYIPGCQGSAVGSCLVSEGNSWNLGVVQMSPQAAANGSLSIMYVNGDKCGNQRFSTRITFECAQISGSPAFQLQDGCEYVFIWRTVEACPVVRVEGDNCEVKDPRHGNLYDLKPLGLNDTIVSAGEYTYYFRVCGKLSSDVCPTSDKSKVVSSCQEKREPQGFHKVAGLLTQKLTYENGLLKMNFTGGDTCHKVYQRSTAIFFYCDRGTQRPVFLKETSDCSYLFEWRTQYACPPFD
T1 sequence (P11717 41-1365 limits assumed): as above

Turning to `O=C(CCCCCc1cn(CCOCCOCCOCCOCCC(=O)Oc2c(F)c(F)c(F)c(F)c2F)nn1)Nc1ccc(O[C@H]2O[C@H](CCP(=O)(O)O)[C@@H](O)[C@H](O)[C@@H]2O)cc1` [513 (I-39)], the concentration giving a half-maximal response (EC50) at CI-M6PR (setting [6]) turned out to be 0.19 nM. In addition, the “uptake into Jurkat cells (cell fluorescence vs conjugate concentration)” value in the series on Jurkat cells [1] (one hour incubation, FIG. 12) is listed as “strong cell uptake”.
With `O=C(CCOCCOCCOCCOCCn1cc(CCCCNC(=S)Nc2ccc(O[C@H]3O[C@H](CCP(=O)(O)O)[C@@H](O)[C@H](O)[C@@H]3O)cc2)nn1)Oc1c(F)c(F)c(F)c(F)c1F` [520 (I-7)], the EC50 on CI-M6PR (Table 16B, antibody conjugate, average loading DAR 4, read-out: EC50 in M6PR binding assay) was 0.41 nM; at CI-M6PR (Table 16C, cetuximab (anti-EGFR) conjugate, average loading DAR 8, read-out: EC50 in M6PR binding assay), 0.41 nM; on CI-M6PR (Table 16D, conjugate, m average loading DAR 2, read-out: EC50 in M6PR binding assay for conjugates of compounds of varying multivalency), 3.71 nM; at CI-M6PR (Table 16D, conjugate, m average loading DAR 4, read-out: EC50 in M6PR binding assay for conjugates of compounds of varying multivalency), 0.3 nM; on CI-M6PR (Table 16D, conjugate, m average loading DAR 9, read-out: EC50 in M6PR binding assay for conjugates of compounds of varying multivalency) it was 0.23 nM; on CI-M6PR (Table 16E, conjugate, m average DAR 2, read-out: EC50 in M6PR binding assay for conjugates of monovalent compounds of varying linker length and loading) it was 3.71 nM. In addition, the concentration giving a half-maximal response (EC50) at CI-M6PR (Table 16E, conjugate, m average DAR 4, read-out: EC50 in M6PR binding assay for conjugates of monovalent compounds of varying linker length and loading) was 0.3 nM; at CI-M6PR (Table 16E, conjugate, m average DAR 9, read-out: EC50 in M6PR binding assay for conjugates of monovalent compounds of varying linker length and loading) it was 0.23 nM; at CI-M6PR (antibody conjugate, average loading DAR 2, read-out: EC50 (nM) in M6PR binding assay) it was 2.6 nM; on CI-M6PR (antibody conjugate, average loading DAR 4, read-out: EC50 (nM) in M6PR binding assay), 0.22 nM; at CI-M6PR (setting [6]) it was 0.22 nM. Further, at CI-M6PR (matuzumab conjugates, I-7 at d8 (DAR 8), I-11 at d4 (DAR 4)), the “binding affinity to M6PR, rank among conjugates tested (FIGS. 7A-7F)” value was “highest”. The “cell uptake of Alexa488-IgE target, WT K562 versus CI-M6PR KO cells” value in series [2] is reported as “CI-M6PR dependent”. Moreover, in the series with Hep G2 cells, the “uptake into HepG2 cells” value is recorded as “comparable HepG2 cellular uptake”.
In the case of `C[C@H](NC(=O)CCCn1cc(CCCCNC(=S)Nc2ccc(O[C@H]3O[C@H](CCP(=O)(O)O)[C@@H](O)[C@H](O)[C@@H]3O)cc2)nn1)C(=O)N[C@@H](C)C(=O)N[C@@H](C)C(=O)NCCOCCOCCOCCOCCC(=O)Oc1c(F)c(F)c(F)c(F)c1F` [528 (I-51)], the EC50 on CI-M6PR (EC50 in M6PR binding assay for conjugates of compounds of varying multivalency, Table 16D, conjugate, m average loading DAR 2) stood at 2.23 nM; at CI-M6PR (EC50 in M6PR binding assay for conjugates of monovalent compounds of varying linker length and loading, Table 16E, conjugate, m average DAR 2) it was 2.23 nM; at CI-M6PR (Table 16B, antibody conjugate, average loading DAR 8, read-out: EC50 in M6PR binding assay), 0.3 nM; on CI-M6PR (Table 16D, conjugate, m average loading DAR 9.5, read-out: EC50 in M6PR binding assay for conjugates of compounds of varying multivalency), 0.2 nM; on CI-M6PR (setting [7]) it was 0.2 nM; at CI-M6PR (setting [8]), 0.2 nM. Besides, the “uptake into Jurkat cells, average loading DAR9 versus DAR2” value in the series with Jurkat cells [1] (one hour incubation, FIG. 12) was “greater uptake”. The “uptake into Jurkat cells (cell fluorescence vs conjugate concentration)” value with Jurkat cells [1] (one hour incubation, FIG. 12) was “strong cell uptake”.
As to `O=C(NCCCCc1cn(CCOCCOCCOCCOCCC(=O)Oc2c(F)c(F)c(F)c(F)c2F)nn1)Nc1ccc(O[C@H]2O[C@H](CCP(=O)(O)O)[C@@H](O)[C@H](O)[C@@H]2O)cc1` [529 (I-38)], the EC50 on CI-M6PR (setting [7]) and at CI-M6PR (setting [8]) was 0.19 nM throughout. Moreover, the “uptake into Jurkat cells (cell fluorescence vs conjugate concentration)” value in the series on Jurkat cells [1] (one hour incubation, FIG. 12) is recorded as “strong cell uptake”. The “relative cellular uptake activity of IgE-Alexa488, omalizumab conjugates of Table 15A” value in the series with Jurkat cells [3] is reported as “comparable activity to a thiourea Z^3 analog (520 (I-7) with m=4)”.
With `O=C(CCN1C(=O)C=CC1=O)NCCOCCOCCOCCn1cc(CCO[C@H]2O[C@H](CCP(=O)(O)O)[C@@H](O)[C@H](O)[C@@H]2O)nn1` [Compound I-10], the “binding affinity to M6PR compared to Compound I-7” value on CI-M6PR (conjugates of ligand linkers) is on record as “weaker binding affinity to M6PR compared to Compound I-7; also recorded: weaker binding affinity to M6PR than Compound I-7”. Besides, in series [4], the half-life in mice entry was “longer half-life”. The “intracellular uptake of IgG2a-Alexa488 into Jurkat cells” value in the series with Jurkat cells [1] (anti-IgG2a conjugates, 1 h and 24 h (FIGS. 9-10)) is “sufficiently robust uptake”.
For `C#CCCCC(=O)Nc1ccc2cc(O[C@H]3O[C@H](CCP(=O)(O)O)[C@@H](O)[C@H](O)[C@@H]3O)ccc2c1` [Compound I-68, (2-((2R,3S,4S,5S,6R)-6-((6-(hex-5-ynamido)naphthalen-2-yl)oxy)-3,4,5-trihydroxytetrahydro-2H-pyran-2-yl)ethyl)phosphonic acid], the IC50 in series [5] lay within 100000 to 500000 pM.
The same measure, in the same setting: for `C#CCCCCCOC[C@H]1O[C@H](OC)[C@@H](O[C@H]2O[C@H](CCP(=O)(O)O)[C@@H](O)[C@H](O)[C@@H]2O)[C@@H](O)[C@@H]1O` [Compound I-108, (2-((2R,3S,4S,5S,6R)-6-(((2S,3S,4S,5S,6R)-6-((hept-6-yn-1-yloxy)methyl)-4,5-dihydroxy-2-methoxytetrahydro-2H-pyran-3-yl)oxy)-3,4,5-trihydroxytetrahydro-2H-pyran-2-yl)ethyl)phosphonic acid] the value was ≥ 500000 pM; for `O=C(NCCCCc1cn(-c2cccnc2)nn1)Nc1ccc(C[C@H]2O[C@H](CCP(=O)(O)O)[C@@H](O)[C@H](O)[C@@H]2O)cc1` [Compound P5], 100000 to 500000 pM.
